Read-outs that look alike come from different tables or passages of the source.
Legend:
[1] = target: T1, MtDHFR (Mycobacterium tuberculosis, UniProt P9WNX1)
T1 sequence (P9WNX1 1-161): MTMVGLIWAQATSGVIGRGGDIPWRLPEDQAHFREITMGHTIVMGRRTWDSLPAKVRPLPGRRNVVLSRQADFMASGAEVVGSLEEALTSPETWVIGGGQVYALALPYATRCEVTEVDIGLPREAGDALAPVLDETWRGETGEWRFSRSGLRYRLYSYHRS

[2] = target: T2, MtDHFR-NADPH (Mycobacterium tuberculosis, UniProt P9WNX1); settings: NADP^+ competition
T2 sequence (P9WNX1 1-161): T1 sequence (P9WNX1 1-161)

[3] = target: T3, MtDHFR-NADP^+ (Mycobacterium tuberculosis, UniProt P9WNX1); type: binding; settings: for koff: competitor NADPH
T3 sequence (P9WNX1 1-161): T1 sequence (P9WNX1 1-161)

[4] = NADPH dissociation from MtDHFR-NADPH
[5] = NADPH dissociation from MtDHFR-NADPH-THF

Compound	k4, best-fit value – global fitting ([1]; NADPH association to MtDHFR-THF, not determined experimentally) [M⁻¹ s⁻¹]	k−10, best-fit value – global fitting [1, 4] [s⁻¹]	k−4, best-fit value – global fitting [1, 5] [s⁻¹]	k−4, value obtained by analytical fitting [2, 5] [s⁻¹]	k−10, value obtained by analytical fitting [2, 4] [s⁻¹]	k−3, best-fit value – global fitting ([1]; NADP^+ association to MtDHFR-THF, not determined experimentally) [M⁻¹ s⁻¹]	k−9, best-fit value – global fitting ([1]; NADP^+ association to free enzyme, linked to k9 based on KNADP = 0.33 μM) [M⁻¹ s⁻¹]	k9, best-fit value – global fitting ([1]; NADP^+ dissociation from MtDHFR-NADP^+) [s⁻¹]	k12, best-fit value – global fitting ([1]; NADP^+ dissociation from MtDHFR-NADP^+-DHF) [s⁻¹]	k3, best-fit value – global fitting ([1]; NADP^+ dissociation from MtDHFR-NADP^+-THF) [s⁻¹]	k12, value obtained by analytical fitting ([3]; NADP^+ dissociation from MtDHFR-NADP^+-DHF, NADPH competition) [s⁻¹]	k3, value obtained by analytical fitting ([3]; NADP^+ dissociation from MtDHFR-NADP^+-THF, NADPH competition) [s⁻¹]	k9, value obtained by analytical fitting ([3]; NADP^+ dissociation from MtDHFR-NADP^+, NADPH competition) [s⁻¹]	koff ([3]; NADP^+ from MtDHFR-NADP^+-DHF) [s⁻¹]	koff ([3]; NADP^+ from MtDHFR-NADP^+-THF) [s⁻¹]	koff ([3]; NADP^+ from MtDHFR-NADP^+) [s⁻¹]
NC(=O)C1=CN([C@@H]2O[C@H](COP(=O)(O)OP(=O)(O)OC[C@H]3O[C@@H](n4cnc5c(N)ncnc54)[C@H](OP(=O)(O)O)[C@@H]3O)[C@@H](O)[C@H]2O)C=CC1 [NADPH, nicotinamide adenine dinucleotide phosphate (reduced form)]	1.01e+08	0.08 ± 0.01	1.1 ± 0.1	1.7 ± 0.6	0.13 ± 0.01	–	–	–	–	–	–	–	–	–	–	–
NC(=O)c1ccc[n+]([C@H]2O[C@@H](COP(=O)([O-])OP(=O)(O)OC[C@H]3O[C@@H](n4cnc5c(N)ncnc54)[C@H](OP(=O)(O)O)[C@@H]3O)[C@H](O)[C@@H]2O)c1 [NADP^+, nicotinamide adenine dinucleotide phosphate (oxidized form)]	–	–	–	–	–	1.09e+08 ± 6e+06	2.68e+08 ± 7e+06	81 ± 2	2.1 ± 0.2	7.3 ± 0.1	7.8 ± 0.1	8.02 ± 0.02	98 ± 4	7.8 ± 0.1	8.0 ± 0.1	97.6 ± 4.1
